Results: PubChem BioAssay AID256 (DTP/NCI, 2004)
“And” between values parts separate entries of the source, which are not always exact repeats. Identical values can stand only once. Inconclusive results and toxic doses are left out. Rule for the calls: active = survival T/C of 150% or more; inactive = T/C below 125% in these data.

Tested on: CD2F1 mice, L1210 leukemia ip, survival T/C
Test: NCI In Vivo Anticancer Drug Screen. Data for tumor model L1210 Leukemia (intraperitoneal) in CD2F1 (CDF1) mice
Conditions: higher = longer survival
Method in brief: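 Vehicle-treated tumor-bearing mice served as controls (C) for compound-treated mice (T). Reported figure is T divided by C.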

[1] = endpoint: mean survival time, dose: 6.25 mg/kg/injection, schedule: Q01DX009 (ip), vehicle: saline with Tween-80
[2] = endpoint: mean survival time, dose: 12.5 mg/kg/injection, schedule: Q01DX009 (ip), vehicle: saline with Tween-80
[3] = endpoint: mean survival time, dose: 100.0 mg/kg/injection, schedule: Q01DX001 (ip), vehicle: saline with Tween-80
[4] = endpoint: mean survival time, dose: 200.0 mg/kg/injection, schedule: Q01DX001 (ip), vehicle: saline with Tween-80
[5] = endpoint: mean survival time, dose: 100.0 mg/kg/injection, schedule: Q04DX003 (ip), vehicle: saline with Tween-80
[6] = endpoint: mean survival time, dose: 200.0 mg/kg/injection, schedule: Q04DX003 (ip), vehicle: saline with Tween-80
[7] = endpoint: mean survival time, dose: 400.0 mg/kg/injection, schedule: Q04DX003 (ip), vehicle: saline with Tween-80
[8] = endpoint: mean survival time, dose: 75.0 mg/kg/injection, schedule: Q01DX001 (ip), vehicle: saline
[9] = endpoint: mean survival time, dose: 150.0 mg/kg/injection, schedule: Q01DX001 (ip), vehicle: saline
[10] = endpoint: mean survival time, dose: 300.0 mg/kg/injection, schedule: Q01DX001 (ip), vehicle: saline
[11] = endpoint: mean survival time, dose: 100.0 mg/kg/injection, schedule: Q04DX003 (ip), vehicle: saline
[12] = endpoint: mean survival time, dose: 200.0 mg/kg/injection, schedule: Q04DX003 (ip), vehicle: saline
[13] = endpoint: mean survival time, dose: 100.0 mg/kg/injection, schedule: Q01DX009 (ip), vehicle: saline with Tween-80
[14] = endpoint: mean survival time, dose: 200.0 mg/kg/injection, schedule: Q01DX009 (ip), vehicle: saline with Tween-80
[15] = endpoint: mean survival time, dose: 400.0 mg/kg/injection, schedule: Q01DX009 (ip), vehicle: saline with Tween-80
[16] = endpoint: mean survival time, dose: 50.0 mg/kg/injection, schedule: Q04DX003 (ip), vehicle: saline with Tween-80
[17] = endpoint: mean survival time, dose: 50.0 mg/kg/injection, schedule: Q04DX003 (ip), vehicle: Klucel (hydroxypropylcellulose) (HPC)
[18] = endpoint: mean survival time, dose: 100.0 mg/kg/injection, schedule: Q04DX003 (ip), vehicle: Klucel (hydroxypropylcellulose) (HPC)

Measured: T/C

CC(=O)Oc1cc2c3c(c1)CCCN3CCC2
inactive: endpoint: mean survival time, dose: 5.0 mg/kg/injection, schedule: Q04DX003 (ip), vehicle: saline 102 % of control | [1] 101 % of control | [2] 96 % of control

CCOc1ccc(-n2c(O)c(N=Nc3ccccc3)c(=O)n(-c3ccc(OC)cc3)c2=S)cc1
inactive: [3] 101 % of control | [4] 92 % of control | endpoint: mean survival time, dose: 400.0 mg/kg/injection, schedule: Q01DX001 (ip), vehicle: saline with Tween-80 90 % of control

COC(=O)/C=N/Nc1ccc(C)cc1
inactive: endpoint: mean survival time, dose: 100.0 mg/kg/injection, schedule: Q01DX009 (ip), vehicle: water 86 % of control | endpoint: mean survival time, dose: 200.0 mg/kg/injection, schedule: Q01DX009 (ip), vehicle: water 88 % of control | endpoint: mean survival time, dose: 400.0 mg/kg/injection, schedule: Q01DX009 (ip), vehicle: water 86 % of control

CCCCC[CH2][Sn]([CH2]C)([CH2]C)[O]C(C)=O
inactive: endpoint: mean survival time, dose: 0.5 mg/kg/injection, schedule: Q04DX003 (ip), vehicle: saline 103 % of control | endpoint: mean survival time, dose: 0.63 mg/kg/injection, schedule: Q04DX003 (ip), vehicle: saline with Tween-80 95 % of control | endpoint: mean survival time, dose: 1.0 mg/kg/injection, schedule: Q04DX003 (ip), vehicle: saline 100 % of control | endpoint: mean survival time, dose: 1.25 mg/kg/injection, schedule: Q04DX003 (ip), vehicle: saline with Tween-80 93 % of control | endpoint: mean survival time, dose: 2.0 mg/kg/injection, schedule: Q04DX003 (ip), vehicle: saline 91 % of control | endpoint: mean survival time, dose: 2.5 mg/kg/injection, schedule: Q04DX003 (ip), vehicle: saline with Tween-80 88 % of control

c1ccc(C(=NN=C(c2ccccc2)c2ccccc2)c2ccccc2)cc1
inactive: [5] 97 % of control | [6] 97 % of control | [7] 95 % of control | endpoint: mean survival time, dose: 800.0 mg/kg/injection, schedule: Q04DX003 (ip), vehicle: saline with Tween-80 92 % of control

CC(=O)N(CCCCCCN(N=O)C(C)=O)N=O
inactive: [8] 110 % of control | [9] 122 % of control | [10] 116 % of control

Cc1[nH]c2cc([N+](=O)[O-])ccc2c1[N+](=O)[O-]
inactive: [8] 97 % of control and 108 % of control | [9] 103 % of control and 100 % of control | [10] 93 % of control

CC(C)(C)C(=O)CC(O)(C(F)(F)F)C(F)(F)F
inactive: [11] 100 % of control | [12] 97 % of control | endpoint: mean survival time, dose: 400.0 mg/kg/injection, schedule: Q04DX003 (ip), vehicle: saline 100 % of control

CC1(C)C=CC=C(C(=O)O)C=C1
inactive: [13] 100 % of control | [5] 98 % of control | [14] 92 % of control | [6] 98 % of control | [15] 89 % of control | [7] 94 % of control

CC(C)CCn1cnc2c(=S)nc(N)[nH]c21
inactive: endpoint: mean survival time, dose: 50.0 mg/kg/injection, schedule: Q01DX001 (ip), vehicle: saline with Tween-80 118 % of control | [3] 95 % of control

CCCOP(=S)(NCCOC)OCCC
inactive: [5] 103 % of control | [6] 101 % of control | [7] 103 % of control

COc1ccc2nc3c(Cl)cccc3c(Cl)c2c1
inactive: [16] 98 % of control | [5] 97 % of control | [4] 87 % of control | [6] 101 % of control

CC(C)CCNc1ncnc2c1cnn2C
inactive: endpoint: mean survival time, dose: 25.0 mg/kg/injection, schedule: Q01DX009 (ip), vehicle: saline 97 % of control | endpoint: mean survival time, dose: 50.0 mg/kg/injection, schedule: Q01DX009 (ip), vehicle: saline 108 % of control | endpoint: mean survival time, dose: 100.0 mg/kg/injection, schedule: Q01DX009 (ip), vehicle: saline 86 % of control | [11] 116 % of control

O.[Cl][Pt].[S-]CCN1CCCCC1
inactive: endpoint: mean survival time, dose: 12.5 mg/kg/injection, schedule: Q04DX003 (ip), vehicle: distilled water + Tween-80 96 % of control | endpoint: mean survival time, dose: 25.0 mg/kg/injection, schedule: Q04DX003 (ip), vehicle: distilled water + Tween-80 100 % of control | endpoint: mean survival time, dose: 50.0 mg/kg/injection, schedule: Q04DX003 (ip), vehicle: distilled water + Tween-80 98 % of control | endpoint: mean survival time, dose: 100.0 mg/kg/injection, schedule: Q04DX003 (ip), vehicle: distilled water + Tween-80 90 % of control | endpoint: mean survival time, dose: 200.0 mg/kg/injection, schedule: Q04DX003 (ip), vehicle: distilled water + Tween-80 93 % of control

C=CC1CN(CCc2cc3ccccc3[nH]2)CCC1CC(=O)OCC (stereo not drawn)
inactive: [5] 97 % of control | [6] 101 % of control | [7] 94 % of control

CSC(=S)N/N=C/c1ccccc1O
inactive: [2] 95 % of control | endpoint: mean survival time, dose: 12.5 mg/kg/injection, schedule: Q04DX003 (ip), vehicle: saline with Tween-80 100 % of control | endpoint: mean survival time, dose: 25.0 mg/kg/injection, schedule: Q01DX009 (ip), vehicle: saline with Tween-80 87 % of control | endpoint: mean survival time, dose: 25.0 mg/kg/injection, schedule: Q04DX003 (ip), vehicle: saline with Tween-80 97 % of control | [16] 95 % of control

O=C(O)c1ccccc1C(=O)Nc1ccc(Cl)cc1
inactive: [13] 95 % of control | [5] 94 % of control | [14] 89 % of control | [6] 96 % of control | [7] 86 % of control

Cc1csc2nc(-c3ccccc3)[nH]c(=S)c12
inactive: [5] 90 % of control | [7] 87 % of control

CNNCCCC(=O)NC(C)C
inactive: endpoint: mean survival time, dose: 25.0 mg/kg/injection, schedule: Q04DX003 (ip), vehicle: saline 105 % of control | endpoint: mean survival time, dose: 50.0 mg/kg/injection, schedule: Q04DX003 (ip), vehicle: saline 103 % of control | [11] 110 % of control | [12] 112 % of control

CCc1cccc[n+]1Cc1ccccc1
inactive: endpoint: mean survival time, dose: 3.13 mg/kg/injection, schedule: Q01DX009 (ip), vehicle: saline with Tween-80 95 % of control | [1] 91 % of control | [2] 98 % of control

CC12CCC(=O)C=C1CCC1C2C(=O)CC2(C)C1CCC2(O)C(=O)Cn1ccc(=O)[nH]c1=O (stereo not drawn)
inactive: endpoint: mean survival time, dose: 12.5 mg/kg/injection, schedule: Q04DX003 (ip), vehicle: Klucel (hydroxypropylcellulose) (HPC) 91 % of control | endpoint: mean survival time, dose: 25.0 mg/kg/injection, schedule: Q04DX003 (ip), vehicle: Klucel (hydroxypropylcellulose) (HPC) 101 % of control | [17] 98 % of control | [18] 96 % of control | endpoint: mean survival time, dose: 200.0 mg/kg/injection, schedule: Q04DX003 (ip), vehicle: Klucel (hydroxypropylcellulose) (HPC) 98 % of control

CCCCCCCCCCCCCCCCCC[N+](CC)(CC)CC
inactive: endpoint: mean survival time, dose: 0.75 mg/kg/injection, schedule: Q01DX001 (ip), vehicle: Klucel (hydroxypropylcellulose) (HPC) 91 % of control | endpoint: mean survival time, dose: 1.5 mg/kg/injection, schedule: Q01DX001 (ip), vehicle: Klucel (hydroxypropylcellulose) (HPC) 108 % of control | endpoint: mean survival time, dose: 3.0 mg/kg/injection, schedule: Q01DX001 (ip), vehicle: Klucel (hydroxypropylcellulose) (HPC) 100 % of control

O=[N+]([O-])c1ccc(C(F)(F)F)cc1
inactive: [5] 104 % of control | [6] 102 % of control

NC(N)=N/N=C(\c1ccc(C(F)(F)F)cc1)c1ccc(Cl)c(Cl)c1
inactive: [8] 91 % of control

O=C(NC(C(=O)O)c1ccccc1)OCc1ccccc1 (stereo not drawn)
inactive: [5] 102 % of control | [6] 107 % of control | [7] 97 % of control

CC(=O)ON(C(C)=O)c1ccc(C(N)=O)cc1
inactive: endpoint: median survival time, dose: 25.0 mg/kg/injection, schedule: Q01DX009 (ip), vehicle: saline with Tween-80 103 % of control | endpoint: median survival time, dose: 50.0 mg/kg/injection, schedule: Q01DX009 (ip), vehicle: saline with Tween-80 100 % of control | endpoint: median survival time, dose: 100.0 mg/kg/injection, schedule: Q01DX009 (ip), vehicle: saline with Tween-80 101 % of control | endpoint: median survival time, dose: 200.0 mg/kg/injection, schedule: Q01DX009 (ip), vehicle: saline with Tween-80 103 % of control | endpoint: median survival time, dose: 400.0 mg/kg/injection, schedule: Q01DX009 (ip), vehicle: saline with Tween-80 108 % of control

O=C(NNC(=O)c1ccccc1Cl)Nc1ccc(F)c(Cl)c1
inactive: [13] 91 % of control | [14] 86 % of control | [15] 87 % of control

Cn1c(Cl)nc2c(Cl)nc(Cl)nc21
inactive: [17] 100 % of control | [18] 104 % of control
